According to ChEMBL document CHEMBL1152529, “Synthesis, antifungal, haemolytic and cytotoxic activities of a series of bis(alkylpyridinium)alkanes” (Bioorg Med Chem, 2009):

Tests used:
Pichia kudriavzevii = assay: Antifungal activity against Candida krusei ATCC 6258 after 48 to 72 hrs by broth microdilution method; format: functional
Curvularia australiensis = assay: Antifungal activity against Bipolaris australiensis 03-201798 after 48 to 72 hrs by broth microdilution method; format: functional
Nakaseomyces glabratus = assay: Antifungal activity against Candida glabrata 04-202345 after 48 to 72 hrs by broth microdilution method; format: functional
Aspergillus terreus = assay: Antifungal activity against Aspergillus terreus 05-202844 after 48 to 72 hrs by broth microdilution method; format: functional
[1] = Selectivity index, ratio of IC50 for human A549 cells to MIC for Cryptococcus neoformans ATCC 90112; format: functional
[2] = target: Phospholipase A2, major isoenzyme (Sus scrofa, UniProt P00592); assay: Inhibition of porcine pancreatic PLA2 after 1 hr by radiometric method
MDCK = assay: Cytotoxicity against MDCK cells after 3 hrs by MTS assay; format: cell-based; conditions: Canis lupus familiaris
A549 = assay: Cytotoxicity against human A549 cells after 3 hrs by MTS assay; format: cell-based; conditions: A549, 3 h
[3] = Inhibition of phospholipid fatty acyl chain hydrolysis activity of Cryptococcus neoformans var. grubii H99 PLB assessed as formation of radiolabeled free fatty acid at pH 4 by radiometric assay
[4] = Selectivity index, ratio of HC50 for human erythrocytes to MIC for Cryptococcus neoformans ATCC 90112; format: functional
Aspergillus flavus = assay: Antifungal activity against Aspergillus flavus ATCC 204304 after 48 to 72 hrs by broth microdilution method; format: functional
Lomentospora prolificans = assay: Antifungal activity against Scedosporium prolificans 05-203060 after 48 to 72 hrs by broth microdilution method; format: functional
[5] = Selectivity index, ratio of IC50 for MDCK cells to MIC for Cryptococcus neoformans ATCC 90112; format: functional
Candida parapsilosis = assay: Antifungal activity against Candida parapsilosis ATCC 22019 after 48 to 72 hrs by broth microdilution method; format: functional; conditions: Lodderomyces parapsilosis
[6] = Selectivity index, ratio of HC50 for human erythrocytes to MIC for Candida albicans ATCC 10231; format: functional
[7] = Selectivity index, ratio of IC50 for MDCK cells to MIC for Candida albicans ATCC 10231; format: functional
[8] = Selectivity index, ratio of IC50 for human A549 cells to MIC for Candida albicans ATCC 10231; format: functional
Candida albicans = assay: Antifungal activity against Candida albicans ATCC 10231 after 48 to 72 hrs by broth microdilution method; format: functional
[9] = Cytotoxicity against human erythrocytes assessed as hemolysis after 1 hr; format: cell-based, Erythrocyte
Aspergillus fumigatus = assay: Antifungal activity against Aspergillus fumigatus ATCC 204305 after 48 to 72 hrs by broth microdilution method; format: functional
Cryptococcus neoformans = assay: Antifungal activity against Cryptococcus neoformans ATCC 90112 after 48 to 72 hrs by broth microdilution method; format: functional
Exophiala spinifera = assay: Antifungal activity against Exophiala spinifera 03-200803 after 48 to 72 hrs by broth microdilution method; format: functional
Scedosporium apiospermum = assay: Antifungal activity against Scedosporium apiospermum 05-203100 after 48 to 72 hrs by broth microdilution method; format: functional
Rhizopus arrhizus = assay: Antifungal activity against Rhizopus oryzae 05-203111 after 48 to 72 hrs by broth microdilution method; format: functional

Chain of Phospholipase A2, major isoenzyme (P00592 whole entry): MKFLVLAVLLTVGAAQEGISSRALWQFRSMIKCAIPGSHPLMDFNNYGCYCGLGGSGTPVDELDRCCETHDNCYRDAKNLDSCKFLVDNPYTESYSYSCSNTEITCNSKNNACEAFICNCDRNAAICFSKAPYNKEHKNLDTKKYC

- MIC (Pichia kudriavzevii): 11 µM
- MIC (Curvularia australiensis): 11 µM
- MIC (Nakaseomyces glabratus): 2.7 µM
- MIC (Aspergillus terreus): 11 µM
- IC50 [2]: > 250 µM
- IC50 [3]: 104 µM
- MIC (Aspergillus flavus): 44 µM
- MIC (Lomentospora prolificans): 2.7 µM
- MIC (Candida parapsilosis): 1.4 µM
- MIC (Candida albicans): 2.7 µM
- MIC (Aspergillus fumigatus): 87.5 µM
- MIC (Cryptococcus neoformans): 1.4 µM
- MIC (Exophiala spinifera): 0.7 µM
- MIC (Scedosporium apiospermum): 5.5 µM
- MIC (Rhizopus arrhizus): 2.7 µM
SMILES: CCCCCc1cc[n+](CCCCCCCCCCCC[n+]2ccc(CCCCC)cc2)cc1.[Cl-].[Cl-]
- MFC (Pichia kudriavzevii): 22 µM
- MFC (Curvularia australiensis): 11 µM
- MFC (Nakaseomyces glabratus): 2.7 µM
- MFC (Aspergillus terreus): 22 µM
- Selectivity Index [1]: >40
- IC50 (MDCK): 150 µM
- IC50 (A549): 115 µM
- Selectivity Index [4]: >100
- MFC (Aspergillus flavus): 87.5 µM
- MFC (Lomentospora prolificans): 5.5 µM
- Selectivity Index [5]: >40
- MFC (Candida parapsilosis): 2.7 µM
- Selectivity Index [6]: >100
- Selectivity Index [7]: >40
- Selectivity Index [8]: >40
- MFC (Candida albicans; Candida albicans, ATCC 10231): 2.7 µM
- HC50 at 1 h [9]: > 350 µM
- MFC (Aspergillus fumigatus): 87.5 µM
- MFC (Cryptococcus neoformans; Cryptococcus neoformans, ATCC 90112): 1.4 µM
- MFC (Exophiala spinifera): 0.7 µM
- MFC (Scedosporium apiospermum): 5.5 µM
- MFC (Rhizopus arrhizus): 11 µM
